Experimental data: publication PMC3928314, “Identification and Characterization of Sebaceous Gland Atrophy-Sparing DGAT1 Inhibitors” (PLoS ONE, 2014)
Several values for one entry are separate records, joined by “and”; a condition that tells them apart may be missing. Equal entries are not always repeated. Entries after “also recorded” stand apart in the source; their conditions may differ. Where two headings read alike, the source gives them in different places.

How the values were obtained:
[1] = system: male diet induced obese C57BL/6 mice; assay: Skin histology, sebaceous gland atrophy in DIO mice; format: in vivo, mouse; details: for Sebaceous gland atrophy in skin, in words (skin-positive / skin-negative): 14 days of treatment; for Sebaceous gland size (area), Geometric Mean: dorsal skin biopsies, Cpd1 3 mg/kg, Cpd2 and Cpd3 30 mg/kg, n 10; for Sebaceous gland size (area), Geometric Mean / Scoring (histological adverse effect score, sebaceous gland atrophy): 14 days; for Scoring (histological adverse effect score, sebaceous gland atrophy): oral 30 mg/kg or dose indicated (Cpd1 3 mg/kg), dorsal skin
Experimental: (§1) Experiments were performed in male diet induced obese C57BL/6 mice (Taconic Farms, Germantown, NY) that were fed high-fat diet (D12492: 60% kcal from fat; Research Diets) in a 12 hr light/12 hr dark cycle. Animal protocols used in these studies were approved by the Merck Research Laboratories Institutional Animal Care and Use Committee (Rahway, NJ). Mice were acclimated to nonspecific stress for 7 days before the onset of the chronic dosing studies where they were dosed orally with vehicle (0.5% methylcellulose) or compounds at 30 mg/kg, or at doses indicated, for 14 days.
Skin samples from DIO mice treated with DGAT1 inhibitors for 14 days were collected from the dorsal and/or ventral surface and immediately fixed in 10% buffered formalin for 24 hr at room temperature and embedded in paraffin. Paraffin specimens were sectioned at 5 µm and stained with hematoxylin and eosin, and were evaluated blindly with light microscopy. […] One slide/location with at least 50 sebaceous glands was used for scoring purposes. Digital images were captured using a 20× objective and the ScanScope XT slide scanner system (Aperio Technologies, Vista, CA) and managed using Spectrum (Aperio). The size of the sebaceous glands were measured using ImageScope of Aperio system by the method previously described.

[2] = Skin compound concentration after 14 days oral dosing; format: in vivo, mouse; details: DIO mice; for Skin (skin concentration): oral 30 mg/kg or dose indicated (Cpd1 3 mg/kg), 14 days, trough, BLQ = below detection; for Kp: male, C57BL/6, mouse, skin/plasma, 14 days oral dosing, read-out: Skin/Plasma Ratio (skin to plasma concentration ratio)
Experimental: as §1
The skin tissue samples from mice were weighted and placed in 48-well plates (or tubes). […] An aliquot of 100 µL homogenized blank skin tissue samples were transferred to 96-well plates designated for standard curve and QCs. […] An aliquot of 100 µL dosed skin tissue homogenates were transferred to the 96-well plate and a 25 µL aliquot of acetonitrile:water 1∶1 was added into each well containing dosed tissue samples to make the volumes of all samples, stds, and QCs equal. Protein precipitation was used for sample extraction by the addition of 500 µL of acetonitrile crash solution, containing IS. Internal standard used was Alprazolam (Sigma Aldrich) at 100 µM in the crash solution. Samples were vortexed for 30 seconds and then centrifuged at 4000 rpm for 5 min. The supernatant was transferred to a separate plate.
A Thermo Scientific-Cohesive LX-2 system consisting of a CTC Analytics autosampler, Flux Instruments AG pumps, and a valve module, controlled by Aria software was used. A Sciex API-4000 mass spectrometer (Toronto, Canada) was the detector using Analyst 1.4.2 software. The aqueous mobile phase (A) was water with 0.1% formic acid and the organic mobile phase (B) was acetonitrile with 0.1% formic acid. A gradient chromatographic profile was used. […] Then over 90 seconds, the chromatic conditions were ramped to 5% A and 95% B. This was held for 25 seconds when the conditions were changed back to original 95% A and 5% B and held for 50 seconds. […] A turbo ionspray interface was used in positive ion mode for detection of analytes. Multiple reaction monitoring (MRM) was used to measure the analyte response. The peak area ratio of analyte to internal standard for nominal concentrations was used to make a linear regression line with a 1/x2 weighting factor. The line's equation was used to determine the concentration in the unknown samples.

[3] = Measured logD by high-throughput HPLC; format: physicochemical; details: reversed-phase HPLC, Poroshell 120 EC-C18 column; HT HPLC, pH 7.0; read-out: mlogD (measured logD)
Experimental: LogD was measured by high-throughput (HT) HPLC at pH 7.0. The chromatographic system consisted of an Agilent 1200 HPLC system composed of a G1379B degasser, G1312B binary pump, G1367C well-plate autosampler, G1316B thermostatted column compartment, G1315C diode-array UV-vis detector, and ChemStation software, all from Agilent Technologies, USA. The separations were carried out on a Poroshell 120 EC-C18, 30 mm×3.0 mm I.D., 2.7 µm, (Agilent Technologies, USA). The mobile phase consisted of phosphate buffered saline at pH 7 (mobile phase A) and acetonitrile (mobile phase B). The column oven temperature was set to 30°C. The HPLC analysis began with an isocratic step of 0.2 minutes at 5% B at 1.5 ml/min, followed by a gradient from 5% to 98% B in 1.0 minute at 1.5 ml/min. A second isocratic step of 0.2 minutes at 98% B with a changing flow rate from 1.5 to 2.0 ml/min was then followed by a gradient from 98 to 5% B in 0.1 minutes with the flow rate changing from 2.0 to 1.5 ml/min. The equilibration time between injections is 0.2 minutes at 5% B. The injection volume is 5 µL and the spectrophotometric detection was set to 215, 238 and 254 nm.
A 10 mM DMSO stock solution of compound was delivered for analysis. A 100 µM standard solution was generated by diluting 10 µL of the 10 mM stock solution with 990 µL of diluent (10% DMSO/10% MeCN/80% MeOH, v/v/v). The chromatographic system was calibrated with a set of standards with published shake-flask logD values. Linear regression was used to determine the calibration line relating the retention time to logD for the calibration standards. This line was then used to determine the HT HPLC logD7.0 value of compound from the measured retention time by the HPLC/DAD analysis of the 100 µM standard solution.

[4] = Unbound fraction (Fu) in plasma by equilibrium dialysis; format: in vitro ADME; details: pH 7.4, mouse plasma, equilibrium dialysis 4 hr 37°C
Experimental: Plasma protein binding was determined by equilibrium dialysis with an incubation period of 4 hr at 37°C. The dialysis membrane (10-12K MWCO, HTDialysis, LLC) was hydrated and the dialysis apparatus (HTDialysis, LLC) assembled according to the manufacturer's directions. A 150 µL aliquot of mouse plasma containing compound (5 µM) was added to one side of the dialysis membrane. A 150 µL aliquot of phosphate buffered saline (pH 7.4) was added to the opposite side. The plate was then sealed and placed in a shaking incubator set to maintain a temperature of 37°C and constant shaking rate of 60 rpm for 4 hr. At the end of the incubation period, 50 µL aliquots of plasma and buffer were removed and analyzed by LC-MS/MS. Percent unbound was determined as the amount of compound in buffer (post incubation) divided by amount of compound in plasma (post incubation) x100.

[5] = Plasma compound concentration after 14 days oral dosing; format: in vivo, mouse; details: DIO mice, oral 30 mg/kg or dose indicated (Cpd1 3 mg/kg), trough
Experimental: as §1
Concentrations of compounds in plasma were determined by LC-MS/MS following protein precipitation. To 100 µL of plasma sample, 20 µL of an acetonitrile solution of the internal standard (2,500 ng/ml), was added. This step was followed by protein precipitation with 300 µL of acetonitrile. Samples expected to contain analyte concentrations exceeding the upper limits of the calibration curves were diluted with control plasma. Sample mixtures were vortex-mixed for 15 minutes. After spinning in a centrifuge for 15 minutes at 1,000× g (at 10°C), the supernatants were transferred by a Tomtec Quadra 96 Model 320 (Hamden, CT) to Empore 96 filter plates (Fisher Scientific, Springfield, NJ), and the resulting filtrates collected. These filtrates were dried at 25°C under a stream of nitrogen gas, on a Zymark TurboVap 96 (Hopkinton, MA). The residues were reconstituted with 100 µL of a 8∶2, v/v, mixture of mobile phases A (20 mM aqueous ammonium acetate containing 0.01% formic acid), and B (80∶20, v/v, acetonitrile:methanol), vortex-mixed, spun in a centrifuge at 1,000× g (at 10°C), then analyzed by LC-MS/MS.
The LC-MS/MS system comprised of a Leap Technologies HTS-PAL autosampler (Carrboro, North Carolina), two Perkin Elmer Series 200 Micro Pumps (Norwalk, CT), an in-line pre-column filter, a Type W 6-port Valco switching valve (Vici, Houston, TX), and a Sciex API 365 mass spectrometer (Toronto, Canada). Chromatographic separation of the analytes was achieved by RP-HPLC.
Data were acquired and processed by Sciex Analyst version 1.1 software. Peak area ratios of analyte to internal standard were plotted as a function of the nominal concentrations of the analyte. A line of best fit was generated from the curve points by linear regression with a weighting factor of 1/x2. The equation of this line was then used to calculate the plasma […] in samples.

[6] = molecular target: T1, mDGAT1 (Mus musculus, UniProt Q9Z2A7); assay: DGAT1 enzyme assay; format: biochemical; details: in vitro potency
T1 construct: made in house; host or cells: Pichia (membrane preparations)
T1 sequence (Q9Z2A7 1-498): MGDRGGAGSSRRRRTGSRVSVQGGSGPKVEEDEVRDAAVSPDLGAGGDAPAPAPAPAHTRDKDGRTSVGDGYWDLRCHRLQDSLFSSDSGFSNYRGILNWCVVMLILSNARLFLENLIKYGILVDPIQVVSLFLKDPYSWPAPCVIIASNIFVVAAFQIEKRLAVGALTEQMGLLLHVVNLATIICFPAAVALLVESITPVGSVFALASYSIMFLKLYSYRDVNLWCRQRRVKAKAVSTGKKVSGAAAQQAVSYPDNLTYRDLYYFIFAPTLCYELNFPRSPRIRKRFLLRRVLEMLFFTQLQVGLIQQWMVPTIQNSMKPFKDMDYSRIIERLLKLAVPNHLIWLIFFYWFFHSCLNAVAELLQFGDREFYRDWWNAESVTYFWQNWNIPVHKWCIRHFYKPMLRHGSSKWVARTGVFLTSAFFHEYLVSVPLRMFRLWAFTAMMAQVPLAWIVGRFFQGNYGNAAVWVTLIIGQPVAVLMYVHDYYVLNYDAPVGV

[7] = system: rats; assay: Longer exposure in rats, skin adverse effects; format: in vivo, rat; details: up to 300 mg/kg for 4 weeks, data not shown

Compound: CC(C)(C)OC(=O)NC1(C(=O)N[C@@H]2CC(=O)c3ccccc3N(Cc3cc(C(F)(F)F)cc(C(F)(F)F)c3)C2=O)CC1 [Cpd2]
- Sebaceous gland atrophy in skin, in words (skin-positive / skin-negative) [1]: induce either “minimal to mild” or “moderate to marked” skin sebaceous gland atrophy; also recorded: Skin-Positive
- Sebaceous gland size (area), Geometric Mean [1]: 880
- Scoring (histological adverse effect score, sebaceous gland atrophy) [1]: moderate to marked
- Skin (skin concentration) [2]: 2.16 µM and 1.94 µM and 2.25 µM
- Kp ([2]; po): 17.5
- chromatographic logD [3]: 4.04
- fraction unbound at 4 h, 5 µM [4]: 0.01
- Plasma (plasma concentration) [5]: 0.124 µM and 0.106 µM and 0.163 µM

Compound: O=C(Nc1ccc([C@H]2CC[C@H](C(=O)O)CC2)cc1F)c1nnc(Nc2ccc(F)c(F)c2)o1 [Cpd3]
- Sebaceous gland atrophy in skin, in words (skin-positive / skin-negative) [1]: induce either “minimal to mild” or “moderate to marked” skin sebaceous gland atrophy
- Sebaceous gland size (area), Geometric Mean [1]: 1562
- Scoring (histological adverse effect score, sebaceous gland atrophy) [1]: minimal to mild
- Skin (skin concentration) [2]: 0.135 µM
- Kp [2]: 0.098
- IC50 [6]: 0.011 µM
- IC50 ([6]; same values in µM): 0.011 µM
- chromatographic logD [3]: 1.73
- fraction unbound at 4 h, 5 µM [4]: 0.063
- Plasma (plasma concentration) [5]: 1.38 µM

Compound: Nc1ncnc2c1C(=O)N(c1ccc([C@H]3CC[C@H](CC(=O)O)CC3)cc1)CCO2 [Cpd1]
- Sebaceous gland atrophy in skin, in words (skin-positive / skin-negative) [1]: lack of skin AEs; also recorded: appeared normal; also recorded: Skin-Negative
- Sebaceous gland size (area), Geometric Mean [1]: 1805
- Scoring (histological adverse effect score, sebaceous gland atrophy) [1]: not remarkable
- Skin (skin concentration) [2]: 0.0621 µM
- Kp [2]: 0.32
- Adverse effects in skin [7]: no adverse effects in skin
- chromatographic logD [3]: 0.35
- Plasma (plasma concentration) [5]: 0.194 µM

Compound: CC(C)(O)C[C@H]1CC[C@H](c2ccc(N3CCOc4ncnc(N)c4C3=O)cc2)CC1 [Cpd22]
- Sebaceous gland atrophy in skin, in words (skin-positive / skin-negative) [1]: induce either “minimal to mild” or “moderate to marked” skin sebaceous gland atrophy
- Scoring (histological adverse effect score, sebaceous gland atrophy) [1]: moderate to marked
- Skin (skin concentration) [2]: BLQ
- chromatographic logD [3]: 2.15
- fraction unbound at 4 h, 5 µM [4]: 0.112
- Plasma (plasma concentration) [5]: 51.4 µM
